The values that follow come from PMC7714071, “Interaction of amyloid beta with humanin and acetylcholinesterase is modulated by ATP” (FEBS Open Bio, 2020).

Data set [1] relates to Aβ cytotoxicity. As to conditions: cited from earlier work. From the text: Almost all types of cells produce amyloid beta (Aβ), a peptide well recognized for its role in the development and progression of different stages of Alzheimer's disease (AD). The Aβ peptide is ~ 4 kDa and derived from the sequential processing of the higher molecular weight amyloid precursor protein by two membrane‐bound endoproteases, β‐ and γ‐secretase. Different C‐terminal Aβ heterogeneity results from processing by γ‐secretase, where Aβ40 represents the most abundant isoform (~ 90%) as compared to Aβ42 (~ 10%). Self‐assembled Aβ40/42 peptides into amyloid fib ... || Soluble oligomers of proteins implicated in different diseases are primarily thought to be the main toxic form as opposed to the larger fibrillar assemblies. Aβ regions containing Tyr and Ser (H6DSGY10 and G25SNKG29) (Fig. 1) along with post‐translational modifications of these regions, have been implicated in misfolding, oligomerization, or fibril formation of Aβ [5, 10, 11, 16, 41]. […] Aβ proteins a ... || Acetylcholinesterase (AChE) is an enzyme known for its role in terminating acetylcholine‐mediated neurotransmission at the synaptic cleft. The majority of the cortical AChE in the Alzheimer's brain is mainly associated with the amyloid core of senile plaques. […]

In data set [2] the test system is AChE. Briefly: ELISA, binding of biotinylated-Aβ40 to immobilised AChE. Details: species or system human. From the text:
(§1) Most of the material used was purchased as we previously reported. Nitrocellulose membranes, PBS, ATP, recombinant human AChE (C1682, UniProt accession ID: C9JD78), streptavidin‐conjugated horseradish peroxidase (HRP) conjugate, Ponceau S solution, PMSF, and HS sodium salt from bovine kidney were purchased from Sigma‐Aldrich (St. Louis, MO, USA). Mouse IgG isotype control (mIgG), ultra 3,3′,5,5′‐tetramethylbenzidine (TMB)‐ELISA substrate solution, Halt Protease and Phosphatase Inhibitor Cocktail, HN polyclonal antibody (rabbit, PA1‐41610), and Nunc MaxiSorpTM 96‐well flat bottom plates were from Thermo Fisher (Waltham, MA, USA). […]
(§2) ELISAs were carried out as we previously reported. […] TBST was then used to wash the wells 4× before proceeding in one of two ways: (a) biotinylated samples were analyzed by adding 100 µL streptavidin–HRP conjugate in TBST (1 : 2500 dilution) to the samples followed by incubation for 3 h at RT on a shaker, or (b) samples without biotin were analyzed by adding 100 µL TBST containing the primary antibody as per the manufacturer's recommendation, incubating for 3 h at RT on a shaker, followed by washing the wells 4× with TBST. […] The reaction was stopped with 100 µL 2 M H2SO4 after incubating at RT for 0.5–15 min, resulting in a yellow color change, measured by absorbance at 450 nm. […] Statistical analysis was determined by the […]

Data set [3] concerns AChE. Briefly: ELISA, binding of biotinylated-Aβ42 to immobilised AChE. Details: species or system human.
Text: as §1, §2

The mark [4] stands for this setting: AChE 10 nM on wells, biotinylated-Aβ 1 μM, increasing HS, three independent assays, Fig. 2C.

On to `Nc1ncnc2c1ncn2[C@@H]1O[C@H](COP(=O)(O)OP(=O)(O)OP(=O)(O)O)[C@@H](O)[C@H]1O` [ATP, Adenosine triphosphate], for which the “effect on Aβ-mediated cytotoxicity” value in data set [1] is reported as “protective”. For the same compound, in data set [2] (200 μM ATP, 30 min preincubation RT, pH 7.5, 10 mM MgCl2, three experiments in triplicate, Fig. 3A), the “effect of ATP on affinity of AChE to Aβ40” value was “reduced the affinity”. The “effect of ATP on affinity of AChE to Aβ42” value in data set [3] (200 μM ATP, 30 min preincubation RT, pH 7.5, 10 mM MgCl2, three experiments in triplicate, Fig. 3B) is listed as “reduced the affinity”.

With heparan sulfate [HS], the “effect of HS on binding of Aβ40 to AChE” value in data set [2] (setting [4]) was “No effects”. Moreover, the “effect of HS on binding of Aβ42 to AChE” value in data set [3] (setting [4]) is recorded as “No effects”.
